# Measured values taken from article PMC4752462 (PLoS ONE, 2016).
# How the values were obtained:
# CYP3A4 = details: cited from earlier work
# human recombinant CYP3A4 = molecular target: T1, human recombinant CYP3A4 (Homo sapiens, UniProt P08684); assay: CYP3A4 inhibition, Vivid CYP450 blue screening kit with baculosomes; format: biochemical
# T1 construct: purchased Life Technologies P2858; host or cells: baculosomes (baculovirus-infected insect cell microsomes)
# Experimental: CYP3A4 inhibition assay was carried out by using Vivid® CYP450 Screening Kit from Life Technologies as recommended by the manufacturer (# P2858, Carlsbad, CA). This assay allows rapid measurement of interactions between drugs of interest and CYP enzymes based on their capability to inhibit the production of a fluorescent signal in reactions using CYP BACULOSOMES® Plus Reagents and specific Vivid® Substrates. Briefly, the assay was conducted in a 96-well assay plate. […] The final concentrations of 2.5, 5, 7.5, 10, 25, 50, 75, and 100 μM were achieved by diluting the stocks in 1X Vivid® CYP reaction buffer. […] For ethanol only experiment, 2.5, 5, […], 20, 30, and 50 mM final concentrations were used. The final concentration of acetonitrile in each reaction was 0.01% in 100 μl final reaction volume. The fluorescence was immediately measured using a microplate reader (Cytation™ 5 Cell Imaging Multi-Mode Reader, BioTek, VT) at the 415/460 nm excitation and emission wavelengths.
# The concentrations of all the drugs were quantified using Ab Sciex Analyst® software. Microsomal kinetic data were analyzed using Michaelis-Menten and exponential decay equations. CYP3A4 inhibition data were evaluated by fitting the values to dose-response inhibition and calculated IC50 values were reported. All graphs were plotted and two-tailed t-tests were performed wherever appropriate using GraphPad Prism 5.01 (GraphPad, San Diego, CA). Significant differences between more than two groups analyzed with one-way ANOVA followed by Dunnett’s multiple comparison tests using IBM SPSS […] version 20. A p value <0.05 was considered significant compared to respective controls. The original data and/or statistical analyses for Michaelis-Menten Kinetics, drug metabolism and half-life determination, inhibition studies, and ligand docking are provided in the supporting information (S1 file).
# T1 sequence (P08684 whole entry): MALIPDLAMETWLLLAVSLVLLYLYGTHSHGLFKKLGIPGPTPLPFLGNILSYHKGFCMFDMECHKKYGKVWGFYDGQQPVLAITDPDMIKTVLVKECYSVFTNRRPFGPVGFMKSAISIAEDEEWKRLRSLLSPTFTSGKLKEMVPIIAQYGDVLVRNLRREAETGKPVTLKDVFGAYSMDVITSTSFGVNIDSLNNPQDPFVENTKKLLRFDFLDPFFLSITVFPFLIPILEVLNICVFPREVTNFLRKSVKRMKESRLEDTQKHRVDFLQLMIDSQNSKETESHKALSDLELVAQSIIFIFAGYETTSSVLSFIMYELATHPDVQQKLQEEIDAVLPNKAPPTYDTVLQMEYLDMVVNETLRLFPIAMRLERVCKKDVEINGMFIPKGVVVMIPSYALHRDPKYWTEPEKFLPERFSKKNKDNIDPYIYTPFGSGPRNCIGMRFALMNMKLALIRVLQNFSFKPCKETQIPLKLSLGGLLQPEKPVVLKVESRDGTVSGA
structure (smiles),measurement,setting,value
Cc1c(O)cccc1C(=O)N[C@@H](CSc1ccccc1)[C@H](O)CN1C[C@H]2CCCC[C@H]2C[C@H]1C(=O)NC(C)(C)C [nelfinavir],effect of ethanol exposure on the IC50 value,CYP3A4,significantly decreased
CC(C)CN(C[C@@H](O)[C@H](Cc1ccccc1)NC(=O)O[C@H]1CCOC1)S(=O)(=O)c1ccc(N)cc1 [amprenavir],effect of ethanol exposure on the IC50 value,CYP3A4,significantly decreased
"CCO [EtOH, ethanol]",CYP3A4 activity (Fig 5 inset),human recombinant CYP3A4; EtOH 2.5 mM alone,102.61
same,CYP3A4 activity (Fig 5 inset),human recombinant CYP3A4; EtOH 5 mM alone,98.7735
same,CYP3A4 activity (Fig 5 inset),human recombinant CYP3A4; EtOH 10 mM alone,93.5305
same,CYP3A4 activity (Fig 5 inset),human recombinant CYP3A4; EtOH 20 mM alone,91.7899
same,CYP3A4 activity (Fig 5 inset),human recombinant CYP3A4; EtOH 30 mM alone,86.4404
same,CYP3A4 activity (Fig 5 inset),human recombinant CYP3A4; EtOH 50 mM alone,79.5554
same,inhibition of CYP3A4,human recombinant CYP3A4; ethanol only at 20 mM,~ 10%
